# In US20250170099A1, “TREATMENT OF POSTNATAL DEPRESSION” (GH RESEARCH IRELAND LIMITED, priority 2022, published 2025):
# Test system: patients with postpartum depression (PPD)
# Assay: Open-label clinical trial of inhaled 5-MeO-DMT in postpartum depression (one patient, IDR 6 mg then 12 mg)
# Experimental: The single-arm, open-label clinical trial will involve 15 adult female patients with clinically diagnosed postpartum depression (PPD).
# The second dose (12 mg) will only be administered if: • a. […] The 6 mg dose was safe and well-tolerated according to the investigator, • c. Any psychoactive effects (PsE) of the prior dose have subsided, and • d. Pre-dose vital parameters and forced expiratory volume in one second (FEV1) are in normal range, or if outside of the normal range, are not clinically significant according to the investigator. • 3. Similarly, a third dose (18 mg) will only be administered if: • a. […] The 12 mg dose was safe and well-tolerated according to the investigator, and • c. Any PsE of the prior dose have subsided, and • d. Pre-dose vital parameters and forced expiratory volume in one second (FEV1) are in normal range, or if outside of the normal range, are not clinically significant according to the investigator.
# The patients will be assessed for a peak psychedelic experience (based on a patient-scored visual analogue scale, the PE scale), sedation, and other endpoints after dosing. Follow-up visits are planned for Day 1, and Day 7 after the dosing day.
smiles,measurement,setting,value
COc1ccc2[nH]cc(CCN(C)C)c2c1 [5-MeO-DMT],MADRS apparent sadness improvement,2 hr,5
same,MADRS apparent sadness score,2 hr,0
same,MADRS concentration difficulties improvement,2 hr,0
same,MADRS concentration difficulties score,2 hr,0
same,MADRS inability to feel improvement,2 hr,3
same,MADRS inability to feel score,2 hr,0
same,MADRS inner tension improvement,2 hr,5
same,MADRS inner tension score,2 hr,0
same,MADRS lassitude improvement,2 hr,3
same,MADRS lassitude score,2 hr,0
same,MADRS pessimistic thoughts improvement,2 hr,4
same,MADRS pessimistic thoughts score,2 hr,0
same,MADRS reduced appetite improvement,2 hr,0
same,MADRS reduced appetite score,2 hr,0
same,MADRS reduced sleep improvement,2 hr,0
same,MADRS reduced sleep score,2 hr,5
same,MADRS reported sadness improvement,2 hr,4
same,MADRS reported sadness score,2 hr,0
same,MADRS suicidal thoughts improvement,2 hr,0
same,MADRS suicidal thoughts score,2 hr,0
same,"adverse events (abdominal pain, headache)",Day 0,"mild, short-lasting and resolved spontaneously"
same,BPRS anxiety improvement,Day 1,6
same,BPRS anxiety score,Day 1,1
same,BPRS blunted affect improvement,Day 1,0
same,BPRS blunted affect score,Day 1,1
same,BPRS conceptual disorganization improvement,Day 1,0
same,BPRS conceptual disorganization score,Day 1,1
same,BPRS depressive mood improvement,Day 1,5
same,BPRS depressive mood score,Day 1,1
same,BPRS disorientation improvement,Day 1,0
same,BPRS disorientation score,Day 1,1
same,BPRS emotional withdrawal improvement,Day 1,4
same,BPRS emotional withdrawal score,Day 1,1
same,BPRS excitement improvement,Day 1,1
same,BPRS excitement score,Day 1,1
same,BPRS grandiosity improvement,Day 1,0
same,BPRS grandiosity score,Day 1,1
same,BPRS guilt feelings improvement,Day 1,5
same,BPRS guilt feelings score,Day 1,1
same,BPRS hallucinatory behaviour improvement,Day 1,0
same,BPRS hallucinatory behaviour score,Day 1,1
same,BPRS hostility improvement,Day 1,0
same,BPRS hostility score,Day 1,1
same,BPRS mannerisms and posturing improvement,Day 1,0
same,BPRS mannerisms and posturing score,Day 1,1
same,BPRS motor retardation improvement,Day 1,0
same,BPRS motor retardation score,Day 1,1
same,BPRS somatic concern improvement,Day 1,5
same,BPRS somatic concern score,Day 1,1
same,BPRS suspiciousness improvement,Day 1,0
same,BPRS suspiciousness score,Day 1,1
same,BPRS tension score,Day 1,1
same,BPRS uncooperativeness improvement,Day 1,0
same,BPRS uncooperativeness score,Day 1,1
same,BPRS unusual thought content improvement,Day 1,0
same,BPRS unusual thought content score,Day 1,1
same,MADRS apparent sadness improvement,Day 1,5
same,MADRS apparent sadness score,Day 1,0
same,MADRS concentration difficulties improvement,Day 1,0
same,MADRS concentration difficulties score,Day 1,0
same,MADRS inability to feel improvement,Day 1,3
same,MADRS inability to feel score,Day 1,0
same,MADRS inner tension improvement,Day 1,5
same,MADRS inner tension score,Day 1,0
same,MADRS lassitude improvement,Day 1,3
same,MADRS lassitude score,Day 1,0
same,MADRS pessimistic thoughts improvement,Day 1,4
same,MADRS pessimistic thoughts score,Day 1,0
same,MADRS reduced appetite improvement,Day 1,0
same,MADRS reduced appetite score,Day 1,0
same,MADRS reduced sleep improvement,Day 1,5
same,MADRS reduced sleep score,Day 1,0
same,MADRS reported sadness improvement,Day 1,4
same,MADRS reported sadness score,Day 1,0
same,MADRS suicidal thoughts improvement,Day 1,0
same,MADRS suicidal thoughts score,Day 1,0
same,BIMF functional domain Adjustment score,Day 7,6
same,BIMF functional domain Infant Care score,Day 7,12
same,BIMF functional domain Management score,Day 7,33
same,BIMF functional domain Mother-Child Interaction score,Day 7,17
same,BIMF functional domain Psychological Well-being score,Day 7,53
same,BIMF functional domain Self-Care score,Day 7,13
same,BIMF functional domain Social Support score,Day 7,18
same,BIMF item 1 score (I am a good mother),Day 7,6
same,BIMF item 2 score (I feel rested),Day 7,2
same,BIMF item 3 score (I am comfortable with the way I've chosen to feed my baby),Day 7,6
same,BIMF item 4 score (My baby and I understand each other),Day 7,5
same,BIMF item 5 score (I am able to relax and enjoy time with my baby),Day 7,6
same,BIMF item 6 score (There are people in my life that I can trust to care for my baby),Day 7,6
same,BIMF item 8 score (I am getting enough adult interaction),Day 7,6
same,BIMF item 9 score (I am getting enough encouragement from other people),Day 7,6
same,BIMF item 10 score (I trust my own feelings (instincts)),Day 7,6
same,BIMF item 11 score (I take a little time each week to do something for myself),Day 7,6
same,BIMF item 12 score (I am taking good care of my baby's physical needs),Day 7,6
same,BIMF item 13 score (I am taking good care of my physical needs),Day 7,5
same,BIMF item 14 score (I make good descisions about my baby's health and well being),Day 7,6
same,BIMF item 15 score (My baby and I are getting into a routine),Day 7,6
same,BIMF item 16 score (I worry about how other people judge me),Day 7,5
same,BIMF item 17 score (I am able to take care of my baby and my other responsibilites),Day 7,5
same,BIMF item 18 score (Anxiety or worry often interferes with my mothering ability),Day 7,1
same,"BIMF item 19 score (As time goes on, I am getting better at taking care of my baby)",Day 7,1
same,BIMF item 20 score (I am satisfied with the job I am doing as a new mother),Day 7,5
same,BPRS anxiety improvement,Day 7,6
same,BPRS anxiety score,Day 7,1
same,BPRS blunted affect improvement,Day 7,0
same,BPRS blunted affect score,Day 7,1
same,BPRS conceptual disorganization improvement,Day 7,0
same,BPRS conceptual disorganization score,Day 7,1
same,BPRS depressive mood improvement,Day 7,5
same,BPRS depressive mood score,Day 7,1
same,BPRS disorientation improvement,Day 7,0
same,BPRS disorientation score,Day 7,1
same,BPRS emotional withdrawal improvement,Day 7,4
same,BPRS emotional withdrawal score,Day 7,1
same,BPRS excitement improvement,Day 7,1
same,BPRS excitement score,Day 7,1
same,BPRS grandiosity improvement,Day 7,0
same,BPRS grandiosity score,Day 7,1
same,BPRS guilt feelings improvement,Day 7,5
same,BPRS guilt feelings score,Day 7,1
same,BPRS hallucinatory behaviour improvement,Day 7,0
same,BPRS hallucinatory behaviour score,Day 7,1
same,BPRS hostility improvement,Day 7,0
same,BPRS hostility score,Day 7,1
same,BPRS mannerisms and posturing improvement,Day 7,0
same,BPRS mannerisms and posturing score,Day 7,1
same,BPRS motor retardation improvement,Day 7,0
same,BPRS motor retardation score,Day 7,1
same,BPRS somatic concern improvement,Day 7,5
same,BPRS somatic concern score,Day 7,1
same,BPRS suspiciousness improvement,Day 7,0
same,BPRS suspiciousness score,Day 7,1
same,BPRS tension improvement,Day 7,5
same,BPRS tension score,Day 7,1
same,BPRS uncooperativeness improvement,Day 7,0
same,BPRS uncooperativeness score,Day 7,1
same,BPRS unusual thought content improvement,Day 7,0
same,BPRS unusual thought content score,Day 7,1
same,MADRS apparent sadness improvement,Day 7,5
same,MADRS apparent sadness score,Day 7,0
same,MADRS concentration difficulties improvement,Day 7,0
same,MADRS concentration difficulties score,Day 7,0
same,MADRS inability to feel improvement,Day 7,3
same,MADRS inability to feel score,Day 7,0
same,MADRS inner tension improvement,Day 7,4
same,MADRS inner tension score,Day 7,1
same,MADRS lassitude improvement,Day 7,3
same,MADRS lassitude score,Day 7,0
same,MADRS pessimistic thoughts improvement,Day 7,4
same,MADRS pessimistic thoughts score,Day 7,0
same,MADRS reduced appetite improvement,Day 7,0
same,MADRS reduced appetite score,Day 7,0
same,MADRS reduced sleep improvement,Day 7,5
same,MADRS reduced sleep score,Day 7,0
same,MADRS reported sadness improvement,Day 7,4
same,MADRS reported sadness score,Day 7,0
same,MADRS suicidal thoughts improvement,Day 7,0
same,MADRS suicidal thoughts score,Day 7,0
same,BIMF Adjustment % improvement,Day 7 vs Day 0,20.00%
same,BIMF Adjustment Δ,Day 7 vs Day 0,1
same,BIMF Infant Care % improvement,Day 7 vs Day 0,0.00%
same,BIMF Infant Care Δ,Day 7 vs Day 0,0
same,BIMF Management % improvement,Day 7 vs Day 0,18%
same,BIMF Management Δ,Day 7 vs Day 0,5
same,BIMF Mother-Child Interaction Δ,Day 7 vs Day 0,2
same,BIMF Psychological Well-being Δ,Day 7 vs Day 0,9
same,BIMF Self-Care % improvement,Day 7 vs Day 0,44%
same,BIMF Self-Care Δ,Day 7 vs Day 0,4
same,BIMF Social Support Δ,Day 7 vs Day 0,1
same,BIMF item 1 Δ,Day 7 vs Day 0,0
same,BIMF item 2 Δ,Day 7 vs Day 0,2
same,BIMF item 3 Δ,Day 7 vs Day 0,0
same,BIMF item 4 Δ,Day 7 vs Day 0,0
same,BIMF item 5 Δ,Day 7 vs Day 0,1
same,BIMF item 6 Δ,Day 7 vs Day 0,0
same,BIMF item 7 Δ,Day 7 vs Day 0,0
same,BIMF item 8 Δ,Day 7 vs Day 0,0
same,BIMF item 9 Δ,Day 7 vs Day 0,1
same,BIMF item 10 Δ,Day 7 vs Day 0,1
same,BIMF item 11 Δ,Day 7 vs Day 0,1
same,BIMF item 12 Δ,Day 7 vs Day 0,0
same,BIMF item 13 Δ,Day 7 vs Day 0,1
same,BIMF item 14 Δ,Day 7 vs Day 0,0
same,BIMF item 15 Δ,Day 7 vs Day 0,1
same,BIMF item 16 Δ,Day 7 vs Day 0,2
same,BIMF item 17 Δ,Day 7 vs Day 0,0
same,BIMF item 18 Δ,Day 7 vs Day 0,1
same,BIMF item 19 Δ,Day 7 vs Day 0,1
same,BIMF item 20 Δ,Day 7 vs Day 0,−1
same,BIMF total score Δ,Day 7 vs Day 0,13
same,time to clinical remission,after administration,≤ 2 h
same,time to clinical response,after administration,≤ 2 h
same,BPRS anxiety improvement,discharge,6
same,BPRS anxiety score,discharge,1
same,BPRS blunted affect improvement,discharge,0
same,BPRS blunted affect score,discharge,1
same,BPRS conceptual disorganization improvement,discharge,0
same,BPRS conceptual disorganization score,discharge,1
same,BPRS depressive mood improvement,discharge,5
same,BPRS depressive mood score,discharge,1
same,BPRS disorientation improvement,discharge,0
same,BPRS disorientation score,discharge,1
same,BPRS emotional withdrawal improvement,discharge,4
same,BPRS emotional withdrawal score,discharge,1
same,BPRS excitement improvement,discharge,1
same,BPRS excitement score,discharge,1
same,BPRS grandiosity improvement,discharge,0
same,BPRS grandiosity score,discharge,1
same,BPRS guilt feelings improvement,discharge,5
same,BPRS guilt feelings score,discharge,1
same,BPRS hallucinatory behaviour improvement,discharge,0
same,BPRS hallucinatory behaviour score,discharge,1
same,BPRS hostility improvement,discharge,0
same,BPRS hostility score,discharge,1
same,BPRS mannerisms and posturing improvement,discharge,0
same,BPRS mannerisms and posturing score,discharge,1
same,BPRS motor retardation improvement,discharge,0
same,BPRS motor retardation score,discharge,1
same,BPRS somatic concern improvement,discharge,5
same,BPRS somatic concern score,discharge,1
same,BPRS suspiciousness improvement,discharge,0
same,BPRS suspiciousness score,discharge,1
same,BPRS tension score,discharge,1
same,BPRS uncooperativeness improvement,discharge,0
same,BPRS uncooperativeness score,discharge,1
same,BPRS unusual thought content improvement,discharge,0
same,BPRS unusual thought content score,discharge,1
same,vital parameters,shortly after administration,"temporary, clinically non-relevant increase in heart rate and blood pressure"
